Laboratory results as given in patent publication US20230107983A1, “COMPOUND ISOLATED FROM TORILIDIS FRUCTUS, AND ANTICANCER PHARMACEUTICAL COMPOSITION CONTAINING SAME AS ACTIVE INGREDIENT” (PHARMA-GENE CO., LTD., priority 2020, published 2023).

Key:
[1] = tested on: liver cancer(Hep3B) cell line; assay: WST-1 assay, cell viability of liver cancer cell line; format: cell-based; settings: 10-100 µg/Mℓ, 24 hours, FIG. 6
Method: (§1) The cytotoxicity of the Tr-9 compound to six cancer cell lines was confirmed. Lung cancer(A549), gastric cancer(AGS), liver cancer(Hep3B)), breast cancer(MDA-MB-231), colorectal cancer(HCT116) and pancreatic cancer(BxPC-3) cell lines and fibroblasts were aliquoted in a 96-well plate in an amount of 5×10^3 cells/well, and the novel compound Tr-9 was treated thereto at a concentration of 10, 20, 40, 60, 80, 100 µg/Mℓ for 24 hours, respectively. Lung cancer cell line was further treated at a concentration of 100 µg/Mℓ for 24 hours, 48 hours and 72 hours.
(§2) Then, the amount of living cells was measured using WST(high sensitive Water Soluble Tetrazolium salt). WST reacts with dehydrogenase in living cells and produces orange-colored watersoluble formazan. Since dehydrogenase that reacts with WST is an enzyme present in the mitochondrial electron transport chain of metabolically active cells and is effective only in living cells, the production of formazan is proportional to the number of living cells. Therefore, the absorbance at 450 nm was measured to confirm the cell viability through the formation of formazan.

[2] = tested on: Lung cancer(A549) cell line; assay: WST-1 assay, cell viability of lung cancer cell line; format: cell-based, human; settings: 10-100 µg/Mℓ, 24 hours, FIG. 3
Method: as §1, §2

[3] = tested on: colorectal cancer(HCT116) cell line; assay: WST-1 assay, cell viability of colorectal cancer cell line; format: cell-based, human; settings: 10-100 µg/Mℓ, 24 hours, FIG. 7
Method: as §1, §2

[4] = tested on: gastric cancer(AGS) cell line; assay: WST-1 assay, cell viability of gastric cancer cell line; format: cell-based; settings: 10-100 µg/Mℓ, 24 hours, FIG. 4
Method: as §1, §2

[5] = tested on: pancreatic cancer(BxPC-3) cell line; assay: WST-1 assay, cell viability of pancreatic cancer cell line; format: cell-based; settings: 10-100 µg/Mℓ, 24 hours, FIG. 8
Method: as §1, §2

[6] = tested on: breast cancer(MDA-MB-231) cell line; assay: WST-1 assay, cell viability of breast cancer cell line; format: cell-based; settings: 10-100 µg/Mℓ, 24 hours, FIG. 5
Method: as §1, §2

Measured: cell viability

C=C(C)C1CC2=CC(=O)CC2C(C)CC1OC(=O)/C(C)=C\C (stereo not drawn) [Tr-10]
decreases the cell viability: all assays above
